Experimental findings from US20120196748A1, “PESTICIDAL COMPOSITION” (SYNGENTA LIMITED, priority 2009, published 2012) are described below.

The structures appear in SMILES notation.

Data set [1] can be described thus: Soil mobility of herbicides, uptake by concentric PDMS rings. It is filed as physicochemical. As to conditions: 7 days after application, sandy loam soil, moisture content 26.3%. Here is the method: The soil mobility of various herbicides were examined in sandy loam soil with a moisture content of 26.3%. Three concentric PDMS (polydimethyl siloxane) rings having diameters of 2, 4 and 6 cm, respectively were placed in the soil at three different depths at 0.5 cm apart. 1 ml of a herbicide solution is injected in the center of the rings. The uptake of the herbicide by the rings were analysed 7 days after herbicide application.

Another data set relates to weeds. Put plainly: Field weed control by clomazone-treated wheat seeds. It counts as in vivo. As to conditions: field at Möhlin, 64 days after planting.
Where [2] appears, read: uptake by PDMS ring of 2 cm diameter.
The mark [3] stands for this setting: uptake by PDMS ring of 4 cm diameter.

Procedure for weeds: Two different types of wheat seeds were used, i.e. Match and Steme. The treated wheat seeds were sown in the field (at Möhlin in Swtzerland). 64 days after planting the control of weeds was analysed.

For `CCCN(CCC)C(=O)SCC` [EPTC], the “Percentage of totally applied herbicide (%)” value (“Percentage … (%)” for short) in data set [1] (setting [2]) was determined as 12.70%; in data set [1] (setting [3]) it was 5.56%; in data set [1] (uptake by PDMS ring of 6 cm diameter), 0.97%.

As to `CC1(C)CON(Cc2ccccc2Cl)C1=O` [Clomazone], the “Percentage … (%)” value in data set [1] (setting [2]) was found to be 0.36%. In addition, the “Weed control (%)” value in the data set with weeds (wheat seed type Match) and in the data set on weeds (wheat seed type Steme) was 95% throughout.

Consider `CCCN(CCC)c1c([N+](=O)[O-])cc(C(F)(F)F)cc1[N+](=O)[O-]` [Trifluralin], for which the “Percentage … (%)” value came to 0.62% in data set [1] (setting [2]) and 0.02% in data set [1] (setting [3]).

`CCOCN(C(=O)CCl)c1c(C)cccc1CC` [Acetochlor]: the “Percentage … (%)” value in data set [1] (setting [2]) came out at 0.14%.

Turning to `CCc1cccc(C)c1N(C(=O)CCl)[C@@H](C)COC` [S-metalochlor], the “Percentage … (%)” value in data set [1] (setting [2]) came to 0.11%.
